# Laboratory results from US20020137929A1, “1 - (3-heterocyclylphenyl) isothiourea, -isourea, -guanidine and -amidine herbicidal agents” (Intellectual Property Department, BASF Aktiengesellschaft, priority 1998, published 2002).
# Tests used:
# AMBEL (Ragweed, Common) = test: Postemergence herbicidal evaluation; assay type: in vivo, Ambrosia artemisifolia; settings: postemergence
# Procedure, shortened: (§1)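 Two-week-old seedlings sprayed with compound in 50/50 acetone/water plus 0.5% TWEEN 20, at about 0.0156 to 0.500 kg/ha, nozzle at 40 psi. Kept in greenhouse; rated visually 4-5 weeks after treatment on a 0-9 scale versus control, repeat tests averaged.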
# CASOB (Sicklepod) = test: Postemergence herbicidal evaluation; assay type: in vivo, Cassia obtusifolia; settings: postemergence
# Procedure, shortened: as §1
# GALAP (Galium) [1] = test: Postemergence herbicidal evaluation; assay type: in vivo, Galium aparine; settings: postemergence
# Procedure, shortened: as §1
# [2] = test system: GLXMAW (Soybean, Williams); test: Postemergence herbicidal evaluation; assay type: in vivo, Glycine max, (L.) Merr. cv Williams; settings: postemergence
# Procedure, shortened: as §1
# [3] = test system: TRZAWR (Wheat, Winter, cv Riband); test: Postemergence herbicidal evaluation; assay type: in vivo, Triticum aestivum; settings: postemergence
# Procedure, shortened: as §1
# GALAP (Galium) [4] = test: Preemergence herbicidal evaluation; assay type: in vivo, Galium aparine; settings: rated 4-5 weeks after treatment
# Procedure, shortened: (§2)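 Visual 0-9 rating vs control (stand, vigor, malformation, size, chlorosis, overall appearance), scored 4-5 wk after spraying. Seeded soil cups were treated preemergence with compound in aqueous acetone, ~0.0156-0.500 kg/ha equivalent.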
# SETVI (Foxtail, Green) = test: Preemergence herbicidal evaluation; assay type: in vivo, Setaria viridis; settings: rated 4-5 weeks after treatment
# Procedure, shortened: as §2
# ORYSAT (Rice, Tebonnet) = test: Preemergence herbicidal evaluation; assay type: in vivo, Oryza sativa, (L.) Tebonnet; settings: rated 4-5 weeks after treatment
# Procedure, shortened: as §2
# [5] = test system: ECHORC (Watergrass (Calif.)); test: Preemergence weed control under flooded paddy conditions; assay type: in vivo, Echinochloa oryzoides; settings: rated 3-4 weeks after treatment
# Procedure, shortened: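 Visual injury scored 0-9 against control three to four weeks post-treatment, greenhouse-grown. Application: acetone/water (50/50) solutions dosed directly into flood water (1.5-3 cm over silt loam, planted top 0.5 cm), roughly 0.0313 to 0.500 kg/ha active ingredient.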
# CYPSE (Flatsedge) = test: as above; assay type: in vivo, Cyperus serotinus; settings: rated 3-4 weeks after treatment
# Procedure, shortened: (§3)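 Silt loam, seeds in top 0.5 cm; flood held 1.5-3 cm; test cpd as acetone/water 50/50 into flood water, ~0.0313-0.500 kg/ha a.i.; greenhouse 3-4 wk; visual 0-9 score vs control.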
# [6] = test system: SAGPY (Arrowhead (Pygmaea)); test: as above; assay type: in vivo, Sagittaria pygmaea; settings: rated 3-4 weeks after treatment
# Procedure, shortened: as §3
# [7] = test system: ECHORC (Watergrass (Calif.)); test: Postemergence weed control under flooded paddy conditions; assay type: in vivo, Echinochloa oryzoides; settings: postemergence weeds, rated 3 to 4 weeks after treatment
# Procedure, shortened: (§4)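 Injury ratings (0–9 scale covering stand, vigor, malformation, size, chlorosis and overall appearance versus control) were made three to four weeks after treatment. Test material, about 0.0313 to 0.500 kg/ha a.i. in 50/50 v/v aqueous/acetone, was added to flood water 1.5 to 3 cm deep over 3 to 5 cm weeds and 1.5 to 2.5 leaf rice.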
# [8] = test system: SAGPY (Arrowhead (Pygmaea)); test: as above; assay type: in vivo, Sagittaria pygmaea; settings: postemergence weeds, rated 3 to 4 weeks after treatment
# Procedure, shortened: as §4
compound,measurement,setting,value
Cn1c(C(F)(F)F)cc(=O)n(-c2cc(N=C3SCC(=O)N3C3CCOC3=O)c(Cl)cc2F)c1=O (stereo not drawn) [Compound 73],AMBEL herbicidal rating,"AMBEL (Ragweed, Common); rate 0.0158 kg/ha",9.0
same,AMBEL herbicidal rating,"AMBEL (Ragweed, Common); rate 0.0315 kg/ha",9.0
same,AMBEL herbicidal rating,"AMBEL (Ragweed, Common); rate 0.0630 kg/ha",9.0
same,CASOB herbicidal rating,CASOB (Sicklepod); rate 0.0158 kg/ha,1.0
same,CASOB herbicidal rating,CASOB (Sicklepod); rate 0.0315 kg/ha,7.0
same,CASOB herbicidal rating,CASOB (Sicklepod); rate 0.0630 kg/ha,7.0
same,GALAP herbicidal rating,GALAP (Galium) [1]; rate 0.0158 kg/ha,3.0
same,GALAP herbicidal rating,GALAP (Galium) [1]; rate 0.0315 kg/ha,7.0
same,GALAP herbicidal rating,GALAP (Galium) [1]; rate 0.0630 kg/ha,6.0
same,GLXMAW herbicidal rating,[2]; rate 0.0158 kg/ha,6.0
same,GLXMAW herbicidal rating,[2]; rate 0.0315 kg/ha,5.5
same,GLXMAW herbicidal rating,[2]; rate 0.0630 kg/ha,7.5
same,TRZAWR herbicidal rating,[3]; rate 0.0158 kg/ha,3.5
same,TRZAWR herbicidal rating,[3]; rate 0.0315 kg/ha,4.0
same,TRZAWR herbicidal rating,[3]; rate 0.0630 kg/ha,5.0
same,Preemergence herbicidal rating GALAP,GALAP (Galium) [4]; rate 0.0156 kg/ha,0.0
same,Preemergence herbicidal rating GALAP,GALAP (Galium) [4]; rate 0.0313 kg/ha,0.0
same,Preemergence herbicidal rating GALAP,GALAP (Galium) [4]; rate 0.0625 kg/ha,0.0
same,Preemergence herbicidal rating GALAP,GALAP (Galium) [4]; rate 0.1250 kg/ha,4.0
same,Preemergence herbicidal rating GALAP,GALAP (Galium) [4]; rate 0.2500 kg/ha,9.0
same,Preemergence herbicidal rating SETVI,"SETVI (Foxtail, Green); rate 0.0156 kg/ha",0.0
same,Preemergence herbicidal rating SETVI,"SETVI (Foxtail, Green); rate 0.0313 kg/ha",1.0
same,Preemergence herbicidal rating SETVI,"SETVI (Foxtail, Green); rate 0.0625 kg/ha",0.0
same,Preemergence herbicidal rating SETVI,"SETVI (Foxtail, Green); rate 0.1250 kg/ha",9.0
same,Preemergence herbicidal rating SETVI,"SETVI (Foxtail, Green); rate 0.2500 kg/ha",9.0
same,Preemergence herbicidal rating ORYSAT,"ORYSAT (Rice, Tebonnet); rate 0.0156 kg/ha",0.0
same,Preemergence herbicidal rating ORYSAT,"ORYSAT (Rice, Tebonnet); rate 0.0313 kg/ha",0.0
same,Preemergence herbicidal rating ORYSAT,"ORYSAT (Rice, Tebonnet); rate 0.0625 kg/ha",2.0
same,Preemergence herbicidal rating ORYSAT,"ORYSAT (Rice, Tebonnet); rate 0.1250 kg/ha",2.0
same,Preemergence herbicidal rating ORYSAT,"ORYSAT (Rice, Tebonnet); rate 0.2500 kg/ha",4.0
same,ECHORC herbicidal effect rating,[5]; 0.1250 kg/ha,3.0
same,ECHORC herbicidal effect rating,[5]; 0.2500 kg/ha,7.0
same,CYPSE herbicidal effect rating,CYPSE (Flatsedge); 0.1250 kg/ha,2.0
same,CYPSE herbicidal effect rating,CYPSE (Flatsedge); 0.2500 kg/ha,4.0
same,SAGPY herbicidal effect rating,[6]; 0.1250 kg/ha,3.0
same,SAGPY herbicidal effect rating,[6]; 0.2500 kg/ha,4.0
same,Herbicidal rating ECHORC,[7]; Rate 0.1250 kg/ha,3.0
same,Herbicidal rating ECHORC,[7]; Rate 0.2500 kg/ha,7.0
same,Herbicidal rating SAGPY,[8]; Rate 0.1250 kg/ha,3.0
same,Herbicidal rating SAGPY,[8]; Rate 0.2500 kg/ha,4.0
"CCOC(=O)[C@H](C)N1C(=O)CSC1=Nc1cc(-n2c(=O)cc(C(F)(F)F)n(C)c2=O)c(F)cc1Cl [Compound 76, Ethyl 2-{{2-chloro-5-[3,6-dihydro-3-methyl-2,6-dioxo-4-(trifluoromethyl)-1(2H)-pyrimidinyl]-4-fluorophenyl}imino}-α-methyl-4-oxo-3-thiazolidineacetate, L-]",AMBEL herbicidal rating,"AMBEL (Ragweed, Common); rate 0.0158 kg/ha",9.0
same,AMBEL herbicidal rating,"AMBEL (Ragweed, Common); rate 0.0315 kg/ha",9.0
same,AMBEL herbicidal rating,"AMBEL (Ragweed, Common); rate 0.0630 kg/ha",9.0
same,CASOB herbicidal rating,CASOB (Sicklepod); rate 0.0158 kg/ha,1.0
same,CASOB herbicidal rating,CASOB (Sicklepod); rate 0.0315 kg/ha,4.0
same,CASOB herbicidal rating,CASOB (Sicklepod); rate 0.0630 kg/ha,5.0
same,GALAP herbicidal rating,GALAP (Galium) [1]; rate 0.0158 kg/ha,1.0
same,GALAP herbicidal rating,GALAP (Galium) [1]; rate 0.0315 kg/ha,6.0
same,GALAP herbicidal rating,GALAP (Galium) [1]; rate 0.0630 kg/ha,7.0
same,GLXMAW herbicidal rating,[2]; rate 0.0158 kg/ha,4.0
same,GLXMAW herbicidal rating,[2]; rate 0.0315 kg/ha,5.5
same,GLXMAW herbicidal rating,[2]; rate 0.0630 kg/ha,6.0
same,TRZAWR herbicidal rating,[3]; rate 0.0158 kg/ha,3.5
same,TRZAWR herbicidal rating,[3]; rate 0.0315 kg/ha,5.0
same,TRZAWR herbicidal rating,[3]; rate 0.0630 kg/ha,5.5
same,Preemergence herbicidal rating GALAP,GALAP (Galium) [4]; rate 0.0156 kg/ha,0.0
same,Preemergence herbicidal rating GALAP,GALAP (Galium) [4]; rate 0.0313 kg/ha,0.0
same,Preemergence herbicidal rating GALAP,GALAP (Galium) [4]; rate 0.0625 kg/ha,0.0
same,Preemergence herbicidal rating GALAP,GALAP (Galium) [4]; rate 0.1250 kg/ha,1.0
same,Preemergence herbicidal rating GALAP,GALAP (Galium) [4]; rate 0.2500 kg/ha,9.0
same,Preemergence herbicidal rating SETVI,"SETVI (Foxtail, Green); rate 0.0156 kg/ha",0.0
same,Preemergence herbicidal rating SETVI,"SETVI (Foxtail, Green); rate 0.0313 kg/ha",6.0
same,Preemergence herbicidal rating SETVI,"SETVI (Foxtail, Green); rate 0.0625 kg/ha",7.0
same,Preemergence herbicidal rating SETVI,"SETVI (Foxtail, Green); rate 0.1250 kg/ha",9.0
same,Preemergence herbicidal rating SETVI,"SETVI (Foxtail, Green); rate 0.2500 kg/ha",9.0
same,Preemergence herbicidal rating ORYSAT,"ORYSAT (Rice, Tebonnet); rate 0.0156 kg/ha",0.0
same,Preemergence herbicidal rating ORYSAT,"ORYSAT (Rice, Tebonnet); rate 0.0313 kg/ha",0.0
same,Preemergence herbicidal rating ORYSAT,"ORYSAT (Rice, Tebonnet); rate 0.0625 kg/ha",3.0
same,Preemergence herbicidal rating ORYSAT,"ORYSAT (Rice, Tebonnet); rate 0.1250 kg/ha",4.0
same,Preemergence herbicidal rating ORYSAT,"ORYSAT (Rice, Tebonnet); rate 0.2500 kg/ha",5.0
same,ECHORC herbicidal effect rating,[5]; 0.0313 kg/ha,4.0
same,ECHORC herbicidal effect rating,[5]; 0.0625 kg/ha,7.0
same,ECHORC herbicidal effect rating,[5]; 0.1250 kg/ha,9.0
same,ECHORC herbicidal effect rating,[5]; 0.2500 kg/ha,9.0
same,CYPSE herbicidal effect rating,CYPSE (Flatsedge); 0.0313 kg/ha,2.0
same,CYPSE herbicidal effect rating,CYPSE (Flatsedge); 0.0625 kg/ha,2.0
same,CYPSE herbicidal effect rating,CYPSE (Flatsedge); 0.1250 kg/ha,2.0
same,CYPSE herbicidal effect rating,CYPSE (Flatsedge); 0.2500 kg/ha,3.0
same,SAGPY herbicidal effect rating,[6]; 0.0313 kg/ha,0.0
same,SAGPY herbicidal effect rating,[6]; 0.0625 kg/ha,0.0
same,SAGPY herbicidal effect rating,[6]; 0.1250 kg/ha,4.0
same,SAGPY herbicidal effect rating,[6]; 0.2500 kg/ha,4.0
same,Herbicidal rating ECHORC,[7]; Rate 0.0313 kg/ha,4.0
same,Herbicidal rating ECHORC,[7]; Rate 0.0625 kg/ha,7.0
same,Herbicidal rating ECHORC,[7]; Rate 0.1250 kg/ha,9.0
same,Herbicidal rating ECHORC,[7]; Rate 0.2500 kg/ha,9.0
same,Herbicidal rating SAGPY,[8]; Rate 0.0313 kg/ha,0.0
same,Herbicidal rating SAGPY,[8]; Rate 0.0625 kg/ha,0.0
same,Herbicidal rating SAGPY,[8]; Rate 0.1250 kg/ha,4.0
same,Herbicidal rating SAGPY,[8]; Rate 0.2500 kg/ha,4.0
